From article PMC5113778, “Fragment Linking and Optimization of Inhibitors of the Aspartic Protease Endothiapepsin: Fragment‐Based Drug Design Facilitated by Dynamic Combinatorial Chemistry” (Angewandte Chemie (International Ed. in English), 2016)

Legend:
Format in all cases: biochemical
endothiapepsin [1] = target: T1, endothiapepsin (Cryphonectria parasitica, UniProt P11838); experiment: fluorescence-based protease assay adapted from HIV protease assay; Ki presumably from IC50 (Cheng-Prusoff)
T1 construct: gene EAPA; mature active enzyme, monomer
T1 sequence (P11838 90-419): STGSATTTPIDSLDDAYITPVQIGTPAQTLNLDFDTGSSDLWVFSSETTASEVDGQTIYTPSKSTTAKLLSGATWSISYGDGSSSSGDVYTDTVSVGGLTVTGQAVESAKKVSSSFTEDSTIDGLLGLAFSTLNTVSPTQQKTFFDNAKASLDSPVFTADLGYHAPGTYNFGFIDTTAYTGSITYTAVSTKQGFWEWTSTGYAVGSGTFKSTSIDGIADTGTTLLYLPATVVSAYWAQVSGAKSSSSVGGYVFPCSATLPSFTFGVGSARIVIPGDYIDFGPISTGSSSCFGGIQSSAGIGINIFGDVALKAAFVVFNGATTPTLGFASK
From the text: fluorescence-based protease assay adapted from HIV protease assay; Ki presumably from IC50 (Cheng-Prusoff) on endothiapepsin

endothiapepsin [2] = target: T1, endothiapepsin; experiment: fluorescence-based protease assay adapted from HIV protease assay
From the text: fluorescence-based protease assay adapted from HIV protease assay on endothiapepsin

endothiapepsin [3] = target: T1, endothiapepsin; experiment: fluorescence-based protease assay adapted from HIV protease assay; crystal soaking
From the text: fluorescence-based protease assay adapted from HIV protease assay; crystal soaking on endothiapepsin

| SMILES | Ki (endothiapepsin [1]) [nM] | IC50 (endothiapepsin [2]) [nM] | IC50 (endothiapepsin [3]) [nM] |
| --- | --- | --- | --- |
| N[C@@H](Cc1ccccc1)C(=O)N/N=C/c1cccc(/C=N/NC(=O)[C@@H](N)Cc2ccccc2)c1 [compound 16, bis-acylhydrazone 16] | 980 ± 50 | 2100 ± 100 | – |
| N[C@@H](Cc1c[nH]c2ccccc12)C(=O)N/N=C/c1cccc(/C=N/NC(=O)[C@@H](N)Cc2c[nH]c3ccccc23)c1 [compound 13, bis-acylhydrazone 13] | 25.4 ± 0.2 | – | 54 ± 0.5 |
